Test results published in PMC11596928, “Substrate-Induced Structural Dynamics and Evolutionary Linkage of Siderophore-Iron ABC Transporters of Mycobacterium tuberculosis” (Medicina, 2024).

Biological target: ATPase II (rATPase II), ATPase domain of IrtB (Mycobacterium tuberculosis, UniProt P9WQJ7)
Sequence (P9WQJ7 313-579): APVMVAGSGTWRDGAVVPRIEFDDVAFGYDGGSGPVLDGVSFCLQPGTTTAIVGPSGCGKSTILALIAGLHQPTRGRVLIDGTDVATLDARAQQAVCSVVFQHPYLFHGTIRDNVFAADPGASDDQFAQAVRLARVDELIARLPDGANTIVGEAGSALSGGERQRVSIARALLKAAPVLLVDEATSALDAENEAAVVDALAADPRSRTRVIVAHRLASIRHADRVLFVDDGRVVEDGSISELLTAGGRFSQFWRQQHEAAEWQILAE

## Nc1ncnc2c1ncn2[C@@H]1O[C@H](COP(=O)(O)OP(=O)(O)OP(=O)(O)O)[C@@H](O)[C@H]1O [ATP]
  analytical gel filtration (ATP-dependent dimerization): ATPase II (the ATPase belonging to IrtB) dimers were captured as stable dimers
